From patent US7056355B2, “Hair dye composition and dyeing method” (Kao Corporation, priority 2002, dated 2006)

Assay: pKa determination in DMF/water by titration with UV-visible spectra
Type: physicochemical
Conditions: DMF/water (1/1 by volume) solution, dye 2×10^−5 mol/l
Experimental: The pKa value is determined in DMF/water (1/1-mixture, by volume) as follows:
The dye is dissolved in a solution of a DMF/water (1/1; volume ratio) to a final concentration of 2×10^−5 mol/l. After the resulting solution is adjusted to pH 2, using 1.0 mol/l hydrochloric acid, the solution is titrated with an aqueous 1.0 mol/l sodium hydroxide solution. Recording the change of the visible ultra-violet absorption spectrum, the inflection point is determined by regression analysis.

pKa | SMILES
4.6 | COc1ccc(/N=N/C2C(=O)N(c3ccccc3)N=C2C#N)cc1 [Dye D-7]
4.36 | COc1ccc(/N=N/C2C(=O)N(c3ccc(S(N)(=O)=O)cc3)N=C2C#N)cc1 [Dye D-15]
6.5 | CS(=O)(=O)c1ccc(/N=N/c2ccc(O)c3ccccc23)c(C#N)c1 [Dye D-25]
7.1 | CC(=O)Nc1cc(/N=N/c2ccc(S(C)(=O)=O)cc2C#N)c2ccccc2c1O [Dye D-26]
5.92 | Cc1nn2nc(C(C)(C)C)c(/N=N/c3cc(Cl)c(S(N)(=O)=O)cc3Cl)c2[nH]1 [Dye D-17]
5.82 | N#CC(/N=N/c1ccc(S(N)(=O)=O)cc1)C(=O)c1ccccc1 [Dye D-14]
4.2 | N#CC1=NN(c2ccccc2)C(=O)C1/N=N/c1ccc(S(N)(=O)=O)cc1 [Dye D-6]

Same assay, conditions: DMF/water (1/1 by volume), dye 2×10^−5 mol/l

pka | SMILES
5.09 | CCOC(=O)Nc1cc(/N=N/c2ccc(S(C)(=O)=O)cc2C#N)c2c(NS(C)(=O)=O)cccc2c1O [Dye D-24]
2.86 | N#CC1=NN(c2ccccc2)C(=O)C1/N=N/c1cc(Cl)c(S(N)(=O)=O)cc1Cl [Dye D-18]
6.34 | NS(=O)(=O)c1cccc(S(=O)(=O)Nc2cccc3c(O)ccc(/N=N/c4ccc([N+](=O)[O-])cc4)c23)c1 [Dye D-22]
4.32 | CS(=O)(=O)Nc1cccc2c(O)ccc(/N=N/c3ccc([N+](=O)[O-])cc3S(C)(=O)=O)c12 [Dye D-21]
